Data reported in ChEMBL document CHEMBL3739397, “Identification of an indoletriazoleamino acid conjugate as a highly effective antifungal agent” (2015).
In brackets after ≈: the same amount, converted by molar mass. Activity calls are given as the source filed them. The rule behind the calls is not given here.

Assays:
Candida albicans [1] = assay: Antifungal activity against Candida albicans BWP17 assessed as increase in chitin level at 1/10th of MIC80 by spot assay in presence of CFW; type: functional, organism-based
Candida albicans [2] = assay: Antifungal activity against Candida albicans BWP17 at 0.08 mg/ml after 48 hrs by broth dilution method; type: functional; conditions: BWP17, BWP17, 48 h
Candida albicans [3] = assay: Antifungal activity against Candida albicans BWP17 assessed as necrotic cells at 312.5 ug/ml incubated for overnight by PI staining based microscopic analysis in presence of ketoconazole; type: functional, organism-based
Candida albicans [4] = assay: Antifungal activity against Candida albicans BWP17 at > MIC80 compound added to secondary culture for 3 days by spot assay; type: functional, organism-based
Candida albicans [5] = assay: Antifungal activity against Candida albicans BWP17 after 48 hrs by broth dilution method; type: functional; conditions: BWP17, 48 h
Candida albicans [6] = assay: Antifungal activity against Candida albicans BWP17 at 0.04 mg/ml after 48 hrs by broth dilution method; type: functional; conditions: BWP17, BWP17, 48 h
Candida albicans [7] = assay: Antifungal activity against Candida albicans BWP17 assessed as increase in chitin level at MIC80 by CFW staining based microscopic analysis; type: functional, organism-based
Candida albicans [8] = assay: Antifungal activity against Candida albicans BWP17 assessed as zone of inhibition at 2 mg/ml for 48 hrs by disk diffusion method (reference value: 0.6 cm); type: functional
Candida albicans [9] = assay: Antifungal activity against Candida albicans BWP17 assessed as cell wall damage measured as cell clumping at MIC80 by confocal microscopic analysis; type: functional, organism-based
Candida albicans [10] = assay: Antifungal activity against Candida albicans BWP17 assessed as cell wall damage measured as cell clumping at MIC80 by confocal microscopic analysis in presence of ketoconazole; type: functional, organism-based
Candida albicans [11] = assay: Antifungal activity against Candida albicans BWP17 assessed as cell shrinkage and deposition of cellular content on cell surface at 312.5 ug/ml by scanning electron microscopic analysis in presence of ketocanozole; type: functional, organism-based
Candida albicans [12] = assay: Antifungal activity against Candida albicans BWP17 at 62.5 ug/ml for 3 days by spot assay in presence of terbinafine; type: functional, organism-based
Candida albicans [13] = assay: Antifungal activity against Candida albicans BWP17 assessed as cell shrinkage and deposition of cellular content on cell surface at < MIC80 by scanning electron microscopic analysis; type: functional, organism-based
Candida albicans [14] = assay: Antifungal activity against Candida albicans BWP17 assessed as increase in chitin level at MIC80 by CFW staining based microscopic analysis in presence of ketoconazole; type: functional, organism-based
Candida albicans [15] = assay: Antifungal activity against Candida albicans BWP17 assessed as cell shrinkage and deposition of cellular content on cell surface at 312.5 ug/ml by scanning electron microscopic analysis; type: functional, organism-based
Candida albicans [16] = assay: Antifungal activity against Candida albicans BWP17 at 1/10th of MIC80 for 3 days by spot assay; type: functional, organism-based
Candida albicans [17] = assay: Antifungal activity against Candida albicans BWP17 at MIC80 after 2 days by spot assay in presence of terbinafine; type: functional, organism-based
Candida albicans [18] = assay: Antifungal activity against Candida albicans BWP17 at 400 ug/ml after 48 hrs by spot assay; type: functional, organism-based
Candida albicans [19] = assay: Antifungal activity against Candida albicans BWP17 at 1/10th of MIC80 for 3 days by spot assay in presence of ketoconazole; type: functional, organism-based
Candida albicans [20] = assay: Antifungal activity against Candida albicans BWP17 assessed as zone of inhibition at 0.5 mg/ml for 48 hrs by disk diffusion method (reference value: 0.6 cm); type: functional
Candida albicans [21] = assay: Antifungal activity against Candida albicans BWP17 assessed as mild growth inhibition at 400 ug/ml after 24 hrs by spot assay; type: functional, organism-based
Candida albicans [22] = assay: Antifungal activity against Candida albicans BWP17 at MIC80 after 3 days by spot assay in presence of terbinafine; type: functional, organism-based
Candida albicans [23] = assay: Antifungal activity against Candida albicans BWP17 at MIC80 for 3 days by spot assay in presence of ketoconazole; type: functional, organism-based
Candida albicans [24] = assay: Antifungal activity against Candida albicans BWP17 at MIC80 for 3 days by spot assay; type: functional, organism-based
Candida albicans [25] = assay: Antifungal activity against Candida albicans BWP17 assessed as zone of inhibition at 1 mg/ml for 48 hrs by disk diffusion method (reference value: 0.6 cm); type: functional
Candida albicans [26] = assay: Antifungal activity against Candida albicans BWP17 at 0.6 mg/ml after 48 hrs by broth dilution method; type: functional; conditions: BWP17, BWP17, 48 h
Candida albicans [27] = assay: Antifungal activity against Candida albicans BWP17 at 0.16 mg/ml after 48 hrs by broth dilution method; type: functional; conditions: BWP17, BWP17, 48 h
Candida albicans [28] = assay: Antifungal activity against Candida albicans BWP17 at 0.3 mg/ml after 48 hrs by broth dilution method; type: functional; conditions: BWP17, BWP17, 48 h
Candida albicans [29] = assay: Antifungal activity against Candida albicans BWP17 at 1.25 mg/ml after 48 hrs by broth dilution method; type: functional; conditions: BWP17, BWP17, 48 h
Candida albicans [30] = assay: Antifungal activity against Candida albicans BWP17 assessed as necrotic cells incubated for overnight by PI staining based microscopic analysis; type: functional, organism-based
Candida albicans [31] = assay: Antifungal activity against Candida albicans BWP17 assessed as necrotic cells at […] incubated for overnight by PI staining based microscopic analysis; type: functional, organism-based

Question: How did the Activity (Candida albicans [1]) turn out when O=C(O)CC[C@H](NC(=O)C(=O)c1cn(Cc2cn(-c3ccccc3)nn2)c2ccccc12)C(=O)O was run?
Answer: The Activity was “Active”.

Question: What about the inhibition at 80 µg/mL (Candida albicans [2]) of the same compound?
Answer: Its inhibition at 80 µg/mL is 18%.

Question: And the Activity (Candida albicans [3])?
Answer: Its Activity is “Active”.

Question: What about the Activity (Candida albicans [4]) of the same compound?
Answer: The Activity was “Active”.

Question: What about the MIC80 (Candida albicans [5]) of the same compound?
Answer: The MIC80 was 312 µg/mL (≈ 657 µM).

Question: What about the inhibition at 40 µg/mL (Candida albicans [6]) of the same compound?
Answer: The inhibition at 40 µg/mL was 6%.

Question: What about the Activity (Candida albicans [7]) of the same compound?
Answer: Its Activity is “Active”.

Question: And the Activity (Candida albicans [8])?
Answer: Its Activity is 2.5 cm.

Question: What about the Activity (Candida albicans [9]) of the same compound?
Answer: Its Activity is “Active”.

Question: What about the Activity (Candida albicans [10]) of the same compound?
Answer: Its Activity is “Active”.

Question: And the Activity (Candida albicans [11])?
Answer: Its Activity is “Active”.

Question: What about the Activity (Candida albicans [12]) of the same compound?
Answer: The Activity was “inactive”.

Question: And the Activity (Candida albicans [13])?
Answer: The Activity was “Active”.

Question: And the Activity (Candida albicans [14])?
Answer: The Activity was “Active”.

Question: And the Activity (Candida albicans [15])?
Answer: Its Activity is “Active”.

Question: What about the Activity (Candida albicans [16]) of the same compound?
Answer: The Activity was “Active”.

Question: What about the Activity (Candida albicans [17]) of the same compound?
Answer: Its Activity is “Active”.

Question: What about the Activity (Candida albicans [18]) of the same compound?
Answer: The Activity was “inactive”.

Question: What about the Activity (Candida albicans [19]) of the same compound?
Answer: The Activity was “Active”.

Question: What about the Activity (Candida albicans [20]) of the same compound?
Answer: The Activity was 0.8 cm.

Question: What about the Activity (Candida albicans [21]) of the same compound?
Answer: The Activity was “Active”.

Question: What about the Activity (Candida albicans [22]) of the same compound?
Answer: The Activity was “Active”.

Question: And the Activity (Candida albicans [23])?
Answer: Its Activity is “Active”.

Question: What about the Activity (Candida albicans [24]) of the same compound?
Answer: Its Activity is “Active”.

Question: What about the Activity (Candida albicans [25]) of the same compound?
Answer: Its Activity is 1.2 cm.

Question: What about the inhibition at 600 µg/mL (Candida albicans [26]) of the same compound?
Answer: The inhibition at 600 µg/mL was 84%.

Question: What about the inhibition at 160 µg/mL (Candida albicans [27]) of the same compound?
Answer: Its inhibition at 160 µg/mL is 33%.

Question: What about the inhibition at 300 µg/mL (Candida albicans [28]) of the same compound?
Answer: The inhibition at 300 µg/mL was 81%.

Question: And the inhibition at 1250 µg/mL (Candida albicans [29])?
Answer: Its inhibition at 1250 µg/mL is 84%.

Question: And the Activity (Candida albicans [30])?
Answer: Its Activity is “Active”.

Question: CC(=O)N1CCN(c2ccc(OCC3COC(Cn4ccnc4)(c4ccc(Cl)cc4Cl)O3)cc2)CC1 (stereo not given) was tested. Which Activity (Candida albicans [9]) did it give?
Answer: Its Activity is “Active”.

Question: What about the Activity (Candida albicans [16]) of the same compound?
Answer: Its Activity is “Active”.

Question: And the Activity (Candida albicans [31])?
Answer: Its Activity is “Active”.

Question: What about the Activity (Candida albicans [24]) of the same compound?
Answer: The Activity was “Active”.

Question: For CN(C/C=C/C#CC(C)(C)C)Cc1cccc2ccccc12, which Activity (Candida albicans [24]) is on record?
Answer: Its Activity is “Active”.
